# Measured values as given in patent US20110053897A1 (IRM LLC, priority 2009, published 2011).
# Biological target: T1, Syk kinase (Homo sapiens, UniProt P43405)
# T1 construct: purchased
# Assay: Syk kinase inhibition, Caliper LabChip off-chip mobility-shift kinase assay
# Assay type: biochemical
# Settings: read-out: Syk Enzyme IC50
# Summary of the method: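 Purified Syk pre-incubated 15 min with compound in 100 mM HEPES pH 7.5, 1 mM DTT, 10 mM MgCl2 or MnCl2, 0.002% Brij-35, then 1.5 μM fluorescein peptide and ATP at apparent KM added; 1–1.5 h at room temperature, 4% DMSO, EDTA stop. Microfluidic mobility-shift product/substrate conversion gave % inhibition; IC50 from 12-point series (10–0.00003 μM) by 4-parameter fit.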
row,Structure (SMILES),IC50 [nM]
1,COCCn1ccc2cc(Nc3cnccn3)nc(NC(C)C)c2c1=O [compound 319],137
2,CC(C)Nc1nc(Nc2cnccn2)cc2ccn(CCN3CCOCC3)c(=O)c12 [compound 320],200
3,CCNC(=O)Cn1ccc2cc(Nc3cnccn3)nc(NC(C)C)c2c1=O [compound 321],177
4,CCN(CC)CCNC(=O)c1ccc(Nc2nc(Nc3cc(C)ccn3)cc3ccn(C)c(=O)c23)cc1 [compound 331],748
5,CCOCCOc1ccc(Nc2nc(Nc3cc(C)ccn3)cc3ccn(C)c(=O)c23)cc1 [compound 334],1720
6,CCOCCOc1cccc(Nc2nc(Nc3cc(C)ccn3)cc3ccn(C)c(=O)c23)c1 [compound 335],1610
7,Cn1ccc2cc(Nc3cnccn3)nc(Nc3ccc(S(C)(=O)=O)cc3)c2c1=O [compound 336],584
8,CCOCCOc1cccc(Nc2nc(Nc3cnccn3)cc3ccn(C)c(=O)c23)c1 [compound 337],2130
9,CCN(CC)CCNC(=O)c1ccc(Nc2nc(Nc3cnccn3)cc3ccn(C)c(=O)c23)cc1 [compound 338],1620
10,Cn1ccc2cc(Nc3cnccn3)nc(Nc3cccc(S(N)(=O)=O)c3)c2c1=O [compound 339],879
11,CCOCCOc1ccc(Nc2nc(Nc3cnccn3)cc3ccn(C)c(=O)c23)cc1 [compound 340],2060
12,CNC(=O)c1ccc(Nc2nc(Nc3cc(C)ccn3)cc3ccn(C)c(=O)c23)cc1 [compound 342],222
13,CNC(=O)c1ccc(Nc2nc(Nc3cnccn3)cc3ccn(C)c(=O)c23)cc1 [compound 343],333
14,CC(=O)N1CCC(c2ccc(Nc3nc(Nc4cnccn4)cc4ccn(C)c(=O)c34)cc2)CC1 [compound 345],1220
15,Cn1ccc2cc(Nc3cnccn3)nc(Nc3ccc(C4CCN(C5COC5)CC4)cc3)c2c1=O [compound 346],387
16,CCn1ccc2cc(Nc3cncnc3C)nc(NC(C)C)c2c1=O [compound 348],7440
17,CNS(=O)(=O)c1ccc(Nc2nc(Nc3cc(C)ccn3)cc3ccn(C)c(=O)c23)cc1 [compound 349],414
18,CNS(=O)(=O)c1ccc(Nc2nc(Nc3cnccn3)cc3ccn(C)c(=O)c23)cc1 [compound 350],803
19,Cc1ccnc(Nc2cc3ccn(C)c(=O)c3c(Nc3cccc(S(N)(=O)=O)c3)n2)c1 [compound 352],294
20,CCCNC(=O)c1ccc(Nc2nc(Nc3cc(C)ccn3)cc3ccn(C)c(=O)c23)cc1 [compound 363],551
21,COc1ccc(Nc2nc(Nc3cc(C)ccn3)cc3ccn(C)c(=O)c23)cc1 [compound 364],228
22,COc1ccc(Nc2nc(Nc3cnccn3)cc3ccn(C)c(=O)c23)cc1 [compound 365],361
23,CCCNC(=O)c1ccc(Nc2nc(Nc3cnccn3)cc3ccn(C)c(=O)c23)cc1 [compound 366],323
24,COc1ccc(Nc2nc(Nc3cc(C)ccn3)cc3cc[nH]c(=O)c23)cc1OC [compound 371],233
25,Cc1ccnc(Nc2cc3ccn(C)c(=O)c3c(Nc3ccc(C4CCOCC4)nc3)n2)c1 [compound 372],393
26,CCNC(=O)c1ccc(Nc2nc(Nc3cc(C)ccn3)cc3ccn(C)c(=O)c23)cc1 [compound 380],379
27,CCNC(=O)c1ccc(Nc2nc(Nc3cnccn3)cc3ccn(C)c(=O)c23)cc1 [compound 381],604
28,CCNC(=O)c1ccc(Nc2nc(Nc3cc(Cl)ccn3)cc3ccn(C)c(=O)c23)cc1 [compound 382],362

# Stronger by IC50, values ahead:
row,IC50 [nM],Structure (SMILES)
1,120,C[C@@H](CO)Nc1nc(Nc2cnccn2)cc2ccn(C)c(=O)c12 [compound 327]
2,112,Cn1ccc2cc(Nc3cnccn3)nc(Nc3ccc(C4CCNCC4)cc3)c2c1=O [compound 341]
3,78,Cc1ccnc(Nc2cc3ccn(C)c(=O)c3c(Nc3ccc(S(C)(=O)=O)cc3)n2)c1 [compound 332]
4,63,Cn1ccc2cc(Nc3cnccn3)nc(N[C@H]3CCOC3)c2c1=O [compound 329]
5,57,Cc1ccnc(Nc2cc3ccn(C)c(=O)c3c(N[C@H]3CCOC3)n2)c1 [compound 325]
6,57,CC(C)Nc1nc(Nc2cnccn2)cc2ccn(C)c(=O)c12 [compound 347]
7,49,Cn1ccc2cc(Nc3cnccn3)nc(N[C@H]3CC[C@H](O)CC3)c2c1=O [compound 358]
8,49,Cc1ccnc(Nc2cc3ccn(CCN(C)C)c(=O)c3c(N[C@H]3CC[C@@H](O)CC3)n2)c1 [compound 386]
9,45,CN1CCC(c2ccc(Nc3nc(Nc4cnccn4)cc4ccn(C)c(=O)c34)cc2)CC1 [compound 344]
10,41,Cc1ccnc(Nc2cc3ccn(C)c(=O)c3c(N[C@H]3CC[C@H](O)CC3)n2)c1 [compound 357]
11,37,Cc1ccnc(Nc2cc3ccn(C)c(=O)c3c(N[C@@H](C)CO)n2)c1 [compound 323]
12,37,CCn1ccc2cc(Nc3cnccn3)nc(N[C@H]3CCOC3)c2c1=O [compound 355]
13,36,Cn1ccc2cc(Nc3cc(Cl)ccn3)nc(N[C@H]3CC[C@@H](O)CC3)c2c1=O [compound 379]
14,35,CCn1ccc2cc(Nc3cnccn3)nc(N[C@@H](C)CO)c2c1=O [compound 353]
15,34,[2H]C([2H])([2H])n1ccc2cc(Nc3cnccn3)nc(N[C@H]3CC[C@@H](O)CC3)c2c1=O [compound 377]
16,33,CN(C)CCn1ccc2cc(Nc3cnccn3)nc(N[C@H]3CC[C@@H](O)CC3)c2c1=O [compound 387]

row,IC50 [nM],Structure (SMILES)
1,32,Cc1ccnc(Nc2cc3ccn(C)c(=O)c3c(N[C@H]3CC[C@@H](O)CC3)n2)c1 [compound 326]
2,30,CCn1ccc2cc(Nc3cc(C)ccn3)nc(N[C@H]3CCOC3)c2c1=O [compound 361]
3,28,Cn1ccc2cc(Nc3cc(Cl)ccn3)nc(N[C@H]3CC[C@H](O)CC3)c2c1=O [compound 385]
4,27,C[C@@H](CO)Nc1nc(Nc2cnccn2)cc2ccn(CCO)c(=O)c12 [compound 373]
5,26,CCn1ccc2cc(Nc3cc(Cl)ccn3)nc(N[C@H]3CC[C@@H](O)CC3)c2c1=O [compound 383]
6,25,CCn1ccc2cc(Nc3cc(C)ccn3)nc(N[C@@H](C)CO)c2c1=O [compound 359]
7,24,Cn1ccc2cc(Nc3cnccn3)nc(N[C@H]3CC[C@@H](O)CC3)c2c1=O [compound 330]
8,20,[2H]C([2H])([2H])n1ccc2cc(Nc3cc(C)ccn3)nc(N[C@H]3CC[C@@H](O)CC3)c2c1=O [compound 378]
9,18,CCn1ccc2cc(Nc3cc(C)ccn3)nc(N[C@H]3CC[C@@H](O)CC3)c2c1=O [compound 362]
10,17,O=c1c2c(N[C@H]3CC[C@@H](O)CC3)nc(Nc3cc(Cl)ccn3)cc2ccn1CCO [compound 384]
11,14,O=c1c2c(N[C@H]3CCOC3)nc(Nc3cnccn3)cc2ccn1CCO [compound 375]
12,13,Cc1ccnc(Nc2cc3ccn(CCO)c(=O)c3c(N[C@@H](C)CO)n2)c1 [compound 367]
13,12,Cc1ccnc(Nc2cc3ccn(CCO)c(=O)c3c(N[C@H]3CCOC3)n2)c1 [compound 369]
14,10,CCn1ccc2cc(Nc3cnccn3)nc(N[C@H]3CC[C@@H](O)CC3)c2c1=O [compound 356]
15,6,O=c1c2c(N[C@H]3CC[C@@H](O)CC3)nc(Nc3cnccn3)cc2ccn1CCO [compound 376]
